Data taken from EP0313782A2, “Antimycotic preparations” (BAYER AG, priority 1987, dated 1989).

Test system: Candida-Zellen
Assay: Antimycotic in vivo efficacy (oral) in mouse candidiasis
Design: species or system Mäuse vom Typ SPF-CF₁
Conditions: for Wirkung: mice infected i.v. with 1 - 2 x 10⁶ Candida cells, oral treatment 1 h before and 7 h after infection, 10 - 100 mg/kg each, survivors on day 6 p.i. (untreated controls about 5 %); for Wirkung (comparison with the known compounds (A) and (B)): same test, statement in words in the text
Procedure: Antimykotische in-vivo-Wirksamkeit (oral) bei Mäusecandidose
Mäuse vom Typ SPF-CF₁ wurden intravenös mit 1 - 2 x 10⁶ logarithmisch wachsenden Candida-Zellen, die in physiologischer Kochsalzlösung suspendiert werden, infiziert. Eine Stunde vor und sieben Stunden nach der Infektion werden die Tiere mit jeweils 10 - 100 mg/kg Körpergewicht der Präparate oral behandelt.
Unbehandelte Tiere starben 3 bis 6 Tage post infektionem. Die Überlebensrate am 6.Tag post infektionem betrug bei unbehandelten Kontrolltieren etwa 5 %.

SMILES | Wirkung | Wirkung (comparison with the known compounds (A) and (B))
OC(Cn1cncn1)(c1ccc(F)cc1F)C1(SC(F)(F)F)CC1 (stereo not drawn) [I-1, 1-(2,4-Difluorphenyl)-1-hydroxy-2-(1,2,4-triazol-1-yl)-1-(1-trifluormethylmercapto-cycloprop-1-yl)-ethan] | +++++ (sehr gute Wirkung = 90 % Überlebende am 6.Tag.p.i.) | bessere Wirkung
OC(Cn1cncn1)(c1ccc(F)cc1)C1(SC(F)(F)F)CC1 (stereo not drawn) [I-4] | +++++ (sehr gute Wirkung = 90 % Überlebende am 6.Tag.p.i.) | bessere Wirkung
[O-][S+](C(F)(F)F)C1(C(O)(Cn2cncn2)c2ccc(F)cc2F)CC1 (stereo not drawn) [I-2, 1-(2,4-Difluorphenyl)-1-hydroxy-2-(1,2,4-triazol-1-yl)-1-(trifluormethylsulfoxy-cycloprop-1-yl)-ethan] | +++++ (sehr gute Wirkung = 90 % Überlebende am 6.Tag.p.i.) | bessere Wirkung
